Measured values from patent US20030065039A1, “Biologically active 1,3-bis-aromatic-prop-2-en-1-ones, 1,3-bis-aromatic-propan-1-ones, and 1,3-bis-aromatic-prop-2-yn-1-ones” (Statens Serum Institute, priority 1997, published 2003).

Tests used:
[1] = Preliminary 14 days oral toxicity study in rats; assay type: in vivo; settings: highest dose level 1000 mg/kg/day
Experimental: A preliminary 14 days oral toxicity study in rats was carried out with 6 compounds. Observations included clinical signs, body weights, food intake, haematology, clinical chemistry and macroscopic pathology.

[2] = tested on: Vero cell cultures; assay: Cytotoxicity in Vero cell cultures; assay type: cell-based; settings: Vero cells; values given as fractions, footnote a not given
Excerpt: (§1) In the following is reported the results from a Vero cell culture infected with different viruses. The cell culture used as well as the methods applied are well known to a person skilled in the art.

[3] = tested on: Coxsackie virus B4; assay: Antiviral activity in Vero cell cultures; assay type: cell-based; settings: Vero cells; values given as fractions
Experimental: (§2) IC50 values are determined by the virus plaque formation and/or the virus cytopathic assay using standard methods well-known in the art.
as §1

[4] = tested on: Parainfluenza-3 Virus; assay: Antiviral activity in Vero cell cultures; assay type: cell-based; settings: Vero cells; values given as fractions
Experimental: as §2, §1

[5] = tested on: Reovirus-1; assay: Antiviral activity in Vero cell cultures; assay type: cell-based; settings: Vero cells; values given as fractions
Experimental: as §2, §1

[6] = tested on: Simliki forest virus; assay: Antiviral activity in Vero cell cultures; assay type: cell-based; settings: Vero cells; values given as fractions
Experimental: as §2, §1

[7] = tested on: Sindbis virus; assay: Antiviral activity in Vero cell cultures; assay type: cell-based; settings: Vero cells; values given as fractions
Experimental: as §2, §1

[8] = tested on: cytomegalovirus AD-169 strain; assay: Activity against cytomegalovirus in HEL cells (plaque formation); assay type: cell-based; settings: virus plaque formation reduced by 50%, 100 PFU, values given as fractions
Experimental: as §2

[9] = tested on: cytomegalovirus Davis strain; assay: as above; assay type: cell-based; settings: virus plaque formation reduced by 50%, 100 PFU, values given as fractions
Experimental: as §2

C=CCOc1ccc(C(=O)/C=C/c2cc(OC)cc(OC)c2)cc1 [SBC-35ma, 3,5-dimethoxy-4′-allyloxychalcone]
toxic effects [1]: No toxic effects | Minimum Cytotoxic Concentration [2]: <1/100 | Minimum inhibitory concentration, Coxsackie virus B4 [3]: <1/100 | Minimum inhibitory concentration, Parainfluenza-3 Virus [4]: <1/100 | Minimum inhibitory concentration, Reovirus-1 [5]: <1/100 | Minimum inhibitory concentration, Simliki forest virus [6]: <1/100 | Minimum inhibitory concentration, Sindbis virus [7]: <1/100 | Antiviral activity IC50, AD-169 strain, Assay 1 [8]: <1/60 | Antiviral activity IC50, Davis strain, Assay 1 [9]: <1/60

C=CC(C)(C)c1cc(/C=C/C(=O)c2ccc(O)cc2)c(OC)cc1O [Licochalcone A]
toxic effects [1]: No toxic effects | Minimum Cytotoxic Concentration [2]: <1/100 | Minimum inhibitory concentration, Coxsackie virus B4 [3]: <1/100 | Minimum inhibitory concentration, Parainfluenza-3 Virus [4]: <1/100 | Minimum inhibitory concentration, Reovirus-1 [5]: <1/100 | Minimum inhibitory concentration, Simliki forest virus [6]: <1/100 | Minimum inhibitory concentration, Sindbis virus [7]: 1/600 | Antiviral activity IC50, AD-169 strain, Assay 1 [8]: 1/15000 | Antiviral activity IC50, Davis strain, Assay 1 [9]: 1/50000
